Laboratory results: publication PMC12677607, “Identification of a Pair of Linear or Cyclic Naturally Inspired Bifunctional Lipopeptide Antibiotics That Overcome Antimicrobial Resistance” (Advanced Science, 2025)
Converted amounts (≈) assume the structure as drawn. Each block holds one compound with its values, some of them ahead of it. Numbered stars: 1 amine (or outer) side, 2 acyl side, 3 side chain; on linkers, the order of the positions; unused ones are H or OH. Bridge positions count the residues as written; N and C are the ends. Square brackets hold non-standard residues; d marks the D form. Peptide text beside a SMILES is read from it. * marks the point of attachment. Octanoyl(3R-OH) = CCCCC[C@@H](O)CC(=O)*; X3 = CCCCC[C@H](CC(=O)[*:1])O[*:2]; Dab = NCC[C@H](N)C(=O)O; Dap = NC[C@H](N)C(=O)O

Key:
[1] = system: Acinetobacter baumannii 1104008; assay: microbe, parasite or virus in culture; assay type: cell-based; conditions: for MIC (μg/mL) A. baumannii 1104008: 1104008, 16 h
Protocol: (§1) All MIC assays were performed two independent times (n = 2) in 96‐well plates using a broth micro‐dilution method. The lowest concentration of that inhibited visible microbial growth was recorded as the MIC value.
(§2) For most of bacterial strains, overnight cultures were diluted 5000‐fold in LB broth. For E. faecium and S. aureus, overnight cultures were diluted 1000‐ and 10000‐fold in LB broth, respectively. 100 µL of diluted cells was mixed with 100 µL of LB broth containing each peptide ranging from 64 to 0.125 µg mL^−1 at 2‐fold serial dilutions.

[2] = system: Klebsiella pneumoniae CRKP 5452; assay: microbe, parasite or virus in culture; assay type: cell-based; conditions: for MIC (μg/mL) K. pneumoniae CRKP 5452: CRKP 5452, 16 h
Protocol: as §1, §2

[3] = system: Staphylococcus aureus USA300; assay: microbe, parasite or virus in culture; assay type: cell-based; conditions: for MIC (μg/mL) S. aureus USA300: USA300, 16 h
Protocol: as §1, §2

[4] = system: Streptococcus pyogenes ATCC 19615; assay: microbe, parasite or virus in culture; assay type: cell-based; conditions: for MIC (μg/mL) S. pyogenes ATCC 19615: ATCC 19615, 16 h
Protocol: as §1, §2

[5] = system: Candida albicans ATCC 10231; assay: MIC assay (YPD broth); assay type: cell-based; conditions: for MIC (μg/mL) C. albicans ATCC 10231: ATCC 10231, 16 h
Protocol: as §1
(§3) For fungal strains, overnight cultures were diluted 2000‐fold in YPD broth. 100 µL of diluted cells was mixed with 100 µL of YPD broth containing each peptide ranging from […] 64 to 0.125 µg mL^−1 at 2‐fold serial dilutions.

HeLa cells = assay: Cytotoxicity assay (CCK-8); assay type: cell-based, human; conditions: 48 h
Protocol: The cytotoxicity of each synAQU peptide was assessed using a cell counting kit‐8 (CCK‐8) assay. HeLa cells were first seeded in a 96‐well flat‐bottom microtiter plate with a density of ∼5000 cells per well and incubated in the DMEM medium supplemented with 10% FBS at 37 °C with 5% CO2 for 24 h. […] All cytotoxicity experiments were done in triplicate (n = 3) and repeated two independent times (n = 2).

Shigella Castellani LXX = assay: MIC assay (broth micro-dilution); assay type: cell-based; conditions: Table S11; LB broth, 37 °C, 16 h, n = 2
Protocol: as §1, §2

[6] = system: Acinetobacter baumannii ATCC 17978; assay: microbe, parasite or virus in culture; assay type: cell-based; conditions: ATCC 17978, 16 h
Protocol: as §1, §2

[7] = system: Acinetobacter baumannii ATCC 19606; assay: microbe, parasite or virus in culture; assay type: cell-based; conditions: ATCC 19606, 16 h
Protocol: as §1, §2

[8] = system: Acinetobacter baumannii P53; assay: microbe, parasite or virus in culture; assay type: cell-based; conditions: Table S11; LB broth, 37 °C, 16 h, n = 2
Protocol: as §1, §2

Enterococcus faecalis 26 = assay: microbe, parasite or virus in culture; assay type: cell-based; conditions: 26, 16 h
Protocol: as §1, §2

Enterococcus faecalis 28 = assay: microbe, parasite or virus in culture; assay type: cell-based; conditions: 28, 16 h
Protocol: as §1, §2

[9] = system: Enterococcus faecalis ATCC 29212; assay: microbe, parasite or virus in culture; assay type: cell-based; conditions: ATCC 29212, 16 h
Protocol: as §1, §2

[10] = system: Enterococcus faecium 35682; assay: microbe, parasite or virus in culture; assay type: cell-based; conditions: Table S11; LB broth, 37 °C, 16 h, n = 2
Protocol: as §1, §2

[11] = system: Klebsiella pneumoniae ATCC 13883; assay: microbe, parasite or virus in culture; assay type: cell-based; conditions: ATCC 13883, 16 h
Protocol: as §1, §2

[12] = system: Klebsiella pneumoniae CRKP HS11286; assay: microbe, parasite or virus in culture; assay type: cell-based; conditions: CRKP HS11286, 16 h
Protocol: as §1, §2

[13] = system: Klebsiella pneumoniae NCTC 5056; assay: microbe, parasite or virus in culture; assay type: cell-based; conditions: NCTC 5056, 16 h
Protocol: as §1, §2

[14] = system: Pseudomonas aeruginosa ATCC 9027; assay: microbe, parasite or virus in culture; assay type: cell-based; conditions: ATCC 9027, 16 h
Protocol: as §1, §2

[15] = system: Pseudomonas aeruginosa PAO1; assay: microbe, parasite or virus in culture; assay type: cell-based; conditions: PAO1, 16 h
Protocol: as §1, §2

[16] = system: Salmonella enterica ATCC 14028; assay: microbe, parasite or virus in culture; assay type: cell-based; conditions: ATCC 14028, 16 h
Protocol: as §1, §2

[17] = system: Salmonella typhimurium LXX; assay: microbe, parasite or virus in culture; assay type: cell-based; conditions: murium LXX, 16 h
Protocol: as §1, §2

[18] = system: Staphylococcus aureus ATCC 25923; assay: microbe, parasite or virus in culture; assay type: cell-based; conditions: ATCC 25923, 16 h
Protocol: as §1, §2

[19] = system: Staphylococcus aureus ATCC 6538; assay: microbe, parasite or virus in culture; assay type: cell-based; conditions: ATCC 6538, 16 h
Protocol: as §1, §2

[20] = system: Staphylococcus aureus Newman; assay: microbe, parasite or virus in culture; assay type: cell-based; conditions: Newman, 16 h
Protocol: as §1, §2

[21] = system: Streptococcus mutans ATCC 25175; assay: microbe, parasite or virus in culture; assay type: cell-based; conditions: ATCC 25175, 16 h
Protocol: as §1, §2

[22] = system: Vibrio alginolyticus XSBZ14; assay: microbe, parasite or virus in culture; assay type: cell-based; conditions: 16 h
Protocol: as §1, §2

[23] = system: Candida albicans ATCC 64550; assay type: cell-based; conditions: ATCC 64550, 16 h
Protocol: as §1, §3

[24] = Table S11, LB broth, 37 °C, 16 h, n = 2

MIC (μg/mL) A. baumannii 1104008 [1]: > 64 µg/mL
MIC (μg/mL) K. pneumoniae CRKP 5452 [2]: > 64 µg/mL
MIC (μg/mL) S. aureus USA300 [3]: > 64 µg/mL
MIC (μg/mL) S. pyogenes ATCC 19615 [4]: > 64 µg/mL
MIC (μg/mL) C. albicans ATCC 10231 [5]: > 64 µg/mL
SMILES: CCCCC[C@@H](O)CC(=O)N[C@@H](CN)C(=O)N[C@@H](Cc1ccccc1)C(=O)N[C@H]1CCNC(=O)[C@H](CC(=O)O)NC(=O)[C@H](C(C)C)NC(=O)[C@@H](CC(C)C)NC(=O)[C@H](CN)NC(=O)[C@@H](Cc2ccccc2)NC(=O)[C@H]([C@@H](C)O)NC1=O [synAQU3-C3] ({Octanoyl(3R-OH)}-[Dap]F[Dab]T[dF][Dap][dL]VD; lactam 3-C (inferred))
MIC (μg/mL) Hela (HeLa cells): > 64 µg/mL

MIC (μg/mL) A. baumannii 1104008 [1]: > 64 µg/mL
MIC (μg/mL) K. pneumoniae CRKP 5452 [2]: > 64 µg/mL
MIC (μg/mL) S. aureus USA300 [3]: > 64 µg/mL
MIC (μg/mL) S. pyogenes ATCC 19615 [4]: > 64 µg/mL
MIC (μg/mL) C. albicans ATCC 10231 [5]: > 64 µg/mL
SMILES: CCCCC[C@@H](O)CC(=O)N[C@@H](CN)C(=O)N[C@@H](Cc1ccccc1)C(=O)N[C@@H](CCN)C(=O)N[C@@H]1C(=O)N[C@H](Cc2ccccc2)C(=O)N[C@@H](CN)C(=O)N[C@H](CC(C)C)C(=O)N[C@@H](C(C)C)C(=O)N[C@@H](CC(=O)O)C(=O)O[C@@H]1C [synAQU3-C4] ({Octanoyl(3R-OH)}-[Dap]F[Dab]T[dF][Dap][dL]VD; ester 4-C (inferred))
MIC (μg/mL) Hela (HeLa cells): > 64 µg/mL

MIC (μg/mL) A. baumannii 1104008 [1]: > 64 µg/mL
MIC (μg/mL) K. pneumoniae CRKP 5452 [2]: > 64 µg/mL
MIC (μg/mL) S. aureus USA300 [3]: > 64 µg/mL
MIC (μg/mL) S. pyogenes ATCC 19615 [4]: > 64 µg/mL
MIC (μg/mL) C. albicans ATCC 10231 [5]: > 64 µg/mL
SMILES: CCCCC[C@@H](O)CC(=O)N[C@@H](CN)C(=O)N[C@@H](Cc1ccccc1)C(=O)N[C@@H](CCN)C(=O)N[C@H](C(=O)N[C@H](Cc1ccccc1)C(=O)N[C@@H](CN)C(=O)N[C@H](CC(C)C)C(=O)N[C@H](C(=O)N[C@@H](CC(=O)O)C(=O)O)C(C)C)[C@@H](C)O [synAQU3-L] ({Octanoyl(3R-OH)}-[Dap]F[Dab]T[dF][Dap][dL]VD-OH)
MIC (μg/mL) Hela (HeLa cells): > 64 µg/mL

SMILES: CCCCC[C@@H]1CC(=O)N[C@@H](CN)C(=O)N[C@@H](Cc2ccccc2)C(=O)N[C@@H](CCN)C(=O)N[C@@H]([C@@H](C)O)C(=O)N[C@H](Cc2ccccc2)C(=O)N[C@@H](CN)C(=O)N[C@H](CC(C)C)C(=O)N[C@@H](C(C)C)C(=O)N[C@@H](CC(=O)O)C(=O)O1 [synAQU3-cFA] ([Dap]F[Dab]T[dF][Dap][dL]VD; linker N-C via X3)
MIC Shigella Castellani LXX (Shigella Castellani LXX): 64 µg/mL (≈ 56.3 µM)
MIC Acinetobacter baumannii 1104008 [1, 24]: > 64 µg/mL
MIC Acinetobacter baumannii ATCC 17978 [6]: 64 µg/mL (≈ 56.3 µM)
MIC Acinetobacter baumannii ATCC 19606 [7]: > 64 µg/mL
MIC Acinetobacter baumannii P53 [8]: > 64 µg/mL
MIC Enterococcus faecalis 26 (Enterococcus faecalis 26): 16 µg/mL (≈ 14.1 µM)
MIC Enterococcus faecalis 28 (Enterococcus faecalis 28): > 64 µg/mL
MIC Enterococcus faecalis ATCC 29212 [9]: > 64 µg/mL
MIC Enterococcus faecium 35682 [10]: 32 µg/mL (≈ 28.1 µM)
MIC Klebsiella pneumoniae ATCC 13883 [11]: > 64 µg/mL
MIC Klebsiella pneumoniae CRKP 5452 [2, 24]: > 64 µg/mL
MIC Klebsiella pneumoniae CRKP HS11286 [12]: > 64 µg/mL
MIC Klebsiella pneumoniae NCTC 5056 [13]: > 64 µg/mL
MIC Pseudomonas aeruginosa ATCC 9027 [14]: 32 µg/mL (≈ 28.1 µM)
MIC Pseudomonas aeruginosa PAO1 [15]: 64 µg/mL (≈ 56.3 µM)
MIC Salmonella enterica ATCC 14028 [16]: > 64 µg/mL
MIC Salmonella typhimurium LXX [17]: 64 µg/mL (≈ 56.3 µM)
MIC Staphylococcus aureus ATCC 25923 [18]: > 64 µg/mL
MIC Staphylococcus aureus ATCC 6538 [19]: > 64 µg/mL
MIC Staphylococcus aureus Newman [20]: > 64 µg/mL
MIC Staphylococcus aureus USA300 [3, 24]: > 64 µg/mL
MIC Streptococcus mutans ATCC 25175 [21]: 32 µg/mL (≈ 28.1 µM)
MIC Streptococcus pyogenes ATCC 19615 [4, 24]: 8 µg/mL (≈ 7.03 µM)
MIC Vibrio alginolyticus XSBZ14 [22]: > 64 µg/mL
MIC Candida albicans ATCC 10231 ([5]; Table S11, YPD broth, 30 °C, 16 h, n = 2): 32 µg/mL (≈ 28.1 µM)
MIC Candida albicans ATCC 64550 [23]: 32 µg/mL (≈ 28.1 µM)
